Here are results for 17 compounds from patent US10081635B2, “Substituted N-(pyrrolidine-3-yl)-7H-pyrrolo[2,3-D]pyrimidine-4-amine as janus kinase inhibitor” (YANG JI CHEMICAL CO., LTD., priority 2014, dated 2018).

What is called inhibition is the drop in the measured response relative to a control, in per cent.

Holding throughout (assay type): biochemical
In assay [1] the target is Human JAK1 (Homo sapiens (Human), UniProt P23458). Kind of assay: In vitro kinase inhibition test, JAK1 (33P-ATP filter scintillation). The settings on record: compound at 1 uM; read-out: JAK1 kinase-phosphorylation inhibitory level (% inhibition). How it is done:
(§1) 1. In Vitro Kinase Inhibition Test
(§2) Kinases used were human-derived JAK1, JAK2, JAK3, and TYK2 (Millipore, Germany). Each of these kinases was diluted with a suitable buffer solution as described below, and then mixed with reagents.
Tris(hydroxymethyl)aminomethane (TRIS) and ethylenediaminetetraacetic acid (EDTA) were dissolved in distilled water at a concentration of 20 mM and 0.2 mM, respectively, and 100 uL of β-mercaptoethanol, 10 uL of Brij-35™, and 5 mL of glycerol, each per 100 mL of the solution, were added to the solution, thereby preparing a JAK1 dilution buffer solution.
(§3) Each compound was dissolved in a 100% DMSO solution at a 50 uM concentration. This solution was reacted with reagents in wells on a 96-well plate to reach a final concentration of 1 uM. Detailed experimental methods for each kinase are described below.
After reaction for about 40 minutes at room temperature, the reaction was stopped by adding 5 uL of a 3% (v/v) phosphoric acid solution. […] The methanol drying is a drying process using an azeotropic effect, wherein methanol is added into an aqueous solution for drying.
(§4) In Tables 5 and 6, the numbers in the “Example” column, which are identification numbers of the examples, indicate the compounds synthesized in the corresponding examples, the values in the “JAK1”, “JAK2”, “JAK3”, and “TYK2” columns represent kinase-phosphorylation inhibitory levels as a percentage (%) of the compounds synthesized in the corresponding examples at a 1 uM concentration. In Tables 5 and 6, negative values substantially indicate no inhibitory effect.
(§5) The inhibitory levels (% inhibition) represent a percentage of reduction in phosphorylation activity in each test group with respect to the phosphorylation activity of a corresponding kinase in a negative control group lacking any of the compounds synthesized in the examples. % inhibition=[(Scintillation value of Test compound non-treatment group−Scintillation value of Test compound treatment group)/(Scintillation value of Test compound non-treatment group)]×100

Assay [2] concerns the target Human JAK2 (Homo sapiens (Human), UniProt O60674). Put plainly: In vitro kinase inhibition test, JAK2 (33P-ATP filter scintillation). The settings on record: compound at 1 uM; read-out: JAK2 kinase-phosphorylation inhibitory level (% inhibition). On the procedure: as §1, §2
(§6) 3-morpholinopropane-1-sulfonic acid (MOPS) and EDTA were dissolved in distilled water at a concentration of 20 mM and 1 mM, respectively, and 100 uL of β-mercaptoethanol, 10 uL of Brij-35™, 5 mL of glycerol, and 100 mg of bovine serum albumin (BSA), each per 100 mL of the solution, were added to the solution, thereby preparing a JAK2, JAK3, and TYK2 dilution buffer solution.
as §3
(§7) After reaction for about 40 minutes at room temperature, the reaction was stopped by adding 5 uL of a 3% (v/v) phosphoric acid solution.
as §4, §5

Assay [3] addresses Human JAK3 (Homo sapiens (Human), UniProt P52333). Put plainly: In vitro kinase inhibition test, JAK3 (33P-ATP filter scintillation). The settings on record: compound at 1 uM; read-out: JAK3 kinase-phosphorylation inhibitory level (% inhibition). On the procedure: as §1, §2, §6, §3, §7, §4, §5
Assay [4] concerns the target Human TYK2 (Homo sapiens (Human), UniProt P29597). Kind of assay: In vitro kinase inhibition test, TYK2 (33P-ATP filter scintillation). The settings on record: compound at 1 uM; read-out: TYK2 kinase-phosphorylation inhibitory level (% inhibition). How it is done:
as §1, §2, §6, §3, §7, §4, §5

Human JAK2, sequence (O60674 whole entry): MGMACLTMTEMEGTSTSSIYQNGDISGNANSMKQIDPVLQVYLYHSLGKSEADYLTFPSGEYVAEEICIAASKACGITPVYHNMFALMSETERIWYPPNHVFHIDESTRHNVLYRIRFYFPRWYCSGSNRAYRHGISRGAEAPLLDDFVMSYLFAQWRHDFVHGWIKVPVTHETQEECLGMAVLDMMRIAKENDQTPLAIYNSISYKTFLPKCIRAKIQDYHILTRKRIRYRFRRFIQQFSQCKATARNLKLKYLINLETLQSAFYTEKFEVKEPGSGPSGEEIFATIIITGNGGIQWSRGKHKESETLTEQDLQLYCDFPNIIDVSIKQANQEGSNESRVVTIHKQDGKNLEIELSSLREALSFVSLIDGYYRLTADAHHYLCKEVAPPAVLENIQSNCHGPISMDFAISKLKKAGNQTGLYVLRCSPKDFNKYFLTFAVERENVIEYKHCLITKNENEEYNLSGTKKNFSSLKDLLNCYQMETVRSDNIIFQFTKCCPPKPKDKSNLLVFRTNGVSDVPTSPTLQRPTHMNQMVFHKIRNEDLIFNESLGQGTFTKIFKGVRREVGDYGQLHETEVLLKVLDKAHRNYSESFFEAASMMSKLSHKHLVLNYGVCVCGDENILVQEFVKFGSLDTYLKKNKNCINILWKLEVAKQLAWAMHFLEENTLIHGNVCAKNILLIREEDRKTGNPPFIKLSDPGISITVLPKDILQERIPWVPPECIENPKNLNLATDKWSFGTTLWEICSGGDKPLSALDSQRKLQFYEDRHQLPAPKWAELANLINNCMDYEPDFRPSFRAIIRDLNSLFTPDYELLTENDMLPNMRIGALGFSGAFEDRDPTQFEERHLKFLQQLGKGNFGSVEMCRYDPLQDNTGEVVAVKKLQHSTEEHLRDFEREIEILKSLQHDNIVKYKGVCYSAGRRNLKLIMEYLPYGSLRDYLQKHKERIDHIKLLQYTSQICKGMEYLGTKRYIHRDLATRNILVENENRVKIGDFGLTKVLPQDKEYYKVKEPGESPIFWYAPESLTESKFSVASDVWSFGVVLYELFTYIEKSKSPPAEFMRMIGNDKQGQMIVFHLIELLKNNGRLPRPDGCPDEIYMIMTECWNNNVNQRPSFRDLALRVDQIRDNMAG
Human JAK1, sequence (P23458 whole entry): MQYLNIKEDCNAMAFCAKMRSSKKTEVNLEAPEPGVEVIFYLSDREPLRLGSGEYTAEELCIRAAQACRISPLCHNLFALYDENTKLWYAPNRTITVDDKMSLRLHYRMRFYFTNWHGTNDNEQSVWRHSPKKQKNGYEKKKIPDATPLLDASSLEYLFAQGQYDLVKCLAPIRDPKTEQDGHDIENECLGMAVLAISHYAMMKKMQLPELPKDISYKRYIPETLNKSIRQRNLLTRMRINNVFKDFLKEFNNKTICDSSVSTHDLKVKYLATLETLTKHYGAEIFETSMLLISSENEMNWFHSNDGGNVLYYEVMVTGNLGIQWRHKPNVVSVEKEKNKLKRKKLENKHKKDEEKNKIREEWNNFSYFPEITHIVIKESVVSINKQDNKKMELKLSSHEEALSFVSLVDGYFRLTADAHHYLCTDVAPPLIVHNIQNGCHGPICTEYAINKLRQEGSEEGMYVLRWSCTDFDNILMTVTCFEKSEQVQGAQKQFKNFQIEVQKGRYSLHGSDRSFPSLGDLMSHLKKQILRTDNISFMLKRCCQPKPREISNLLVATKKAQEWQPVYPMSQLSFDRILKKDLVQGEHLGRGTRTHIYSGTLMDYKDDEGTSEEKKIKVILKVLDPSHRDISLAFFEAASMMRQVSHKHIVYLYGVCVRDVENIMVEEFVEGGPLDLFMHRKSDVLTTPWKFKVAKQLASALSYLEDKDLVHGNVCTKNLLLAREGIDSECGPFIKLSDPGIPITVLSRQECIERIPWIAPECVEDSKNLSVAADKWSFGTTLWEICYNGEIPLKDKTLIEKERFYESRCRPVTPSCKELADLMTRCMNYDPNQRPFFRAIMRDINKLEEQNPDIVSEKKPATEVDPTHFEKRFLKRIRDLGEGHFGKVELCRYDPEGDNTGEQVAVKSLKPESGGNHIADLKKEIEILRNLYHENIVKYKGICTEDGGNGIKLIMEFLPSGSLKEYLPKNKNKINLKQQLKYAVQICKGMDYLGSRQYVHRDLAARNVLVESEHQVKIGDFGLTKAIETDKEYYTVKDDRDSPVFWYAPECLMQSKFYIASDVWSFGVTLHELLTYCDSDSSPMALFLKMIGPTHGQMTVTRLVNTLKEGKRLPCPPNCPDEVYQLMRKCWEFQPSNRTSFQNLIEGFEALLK
Human JAK3, sequence (P52333 whole entry): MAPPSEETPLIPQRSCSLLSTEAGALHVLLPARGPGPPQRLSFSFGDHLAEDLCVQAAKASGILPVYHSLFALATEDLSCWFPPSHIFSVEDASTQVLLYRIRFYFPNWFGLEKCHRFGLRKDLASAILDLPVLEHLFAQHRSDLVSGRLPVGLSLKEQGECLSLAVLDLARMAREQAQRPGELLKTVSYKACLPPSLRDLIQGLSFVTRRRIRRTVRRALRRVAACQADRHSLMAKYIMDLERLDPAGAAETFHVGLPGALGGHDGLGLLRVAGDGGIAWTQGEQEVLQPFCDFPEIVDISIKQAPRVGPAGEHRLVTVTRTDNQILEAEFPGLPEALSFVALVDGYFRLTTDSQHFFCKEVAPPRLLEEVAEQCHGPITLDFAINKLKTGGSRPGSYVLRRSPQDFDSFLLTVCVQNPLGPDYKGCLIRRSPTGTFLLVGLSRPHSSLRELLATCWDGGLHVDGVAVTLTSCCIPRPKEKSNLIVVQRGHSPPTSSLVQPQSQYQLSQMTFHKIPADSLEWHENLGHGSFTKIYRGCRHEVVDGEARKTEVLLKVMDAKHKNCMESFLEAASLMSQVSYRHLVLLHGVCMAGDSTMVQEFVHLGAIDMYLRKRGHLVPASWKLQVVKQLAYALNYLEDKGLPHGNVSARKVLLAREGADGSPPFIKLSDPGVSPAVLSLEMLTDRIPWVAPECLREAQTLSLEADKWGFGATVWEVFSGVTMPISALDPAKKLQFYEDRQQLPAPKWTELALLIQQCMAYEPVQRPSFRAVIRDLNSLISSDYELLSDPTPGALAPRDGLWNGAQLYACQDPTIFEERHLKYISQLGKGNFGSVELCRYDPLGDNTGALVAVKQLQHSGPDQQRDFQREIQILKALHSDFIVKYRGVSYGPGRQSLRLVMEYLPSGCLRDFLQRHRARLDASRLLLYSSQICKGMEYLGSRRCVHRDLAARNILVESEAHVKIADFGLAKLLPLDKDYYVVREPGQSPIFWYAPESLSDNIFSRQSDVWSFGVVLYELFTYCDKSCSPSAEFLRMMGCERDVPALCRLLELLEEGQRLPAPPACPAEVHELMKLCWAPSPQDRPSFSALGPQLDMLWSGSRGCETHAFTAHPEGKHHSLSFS
Human TYK2, sequence (P29597 whole entry): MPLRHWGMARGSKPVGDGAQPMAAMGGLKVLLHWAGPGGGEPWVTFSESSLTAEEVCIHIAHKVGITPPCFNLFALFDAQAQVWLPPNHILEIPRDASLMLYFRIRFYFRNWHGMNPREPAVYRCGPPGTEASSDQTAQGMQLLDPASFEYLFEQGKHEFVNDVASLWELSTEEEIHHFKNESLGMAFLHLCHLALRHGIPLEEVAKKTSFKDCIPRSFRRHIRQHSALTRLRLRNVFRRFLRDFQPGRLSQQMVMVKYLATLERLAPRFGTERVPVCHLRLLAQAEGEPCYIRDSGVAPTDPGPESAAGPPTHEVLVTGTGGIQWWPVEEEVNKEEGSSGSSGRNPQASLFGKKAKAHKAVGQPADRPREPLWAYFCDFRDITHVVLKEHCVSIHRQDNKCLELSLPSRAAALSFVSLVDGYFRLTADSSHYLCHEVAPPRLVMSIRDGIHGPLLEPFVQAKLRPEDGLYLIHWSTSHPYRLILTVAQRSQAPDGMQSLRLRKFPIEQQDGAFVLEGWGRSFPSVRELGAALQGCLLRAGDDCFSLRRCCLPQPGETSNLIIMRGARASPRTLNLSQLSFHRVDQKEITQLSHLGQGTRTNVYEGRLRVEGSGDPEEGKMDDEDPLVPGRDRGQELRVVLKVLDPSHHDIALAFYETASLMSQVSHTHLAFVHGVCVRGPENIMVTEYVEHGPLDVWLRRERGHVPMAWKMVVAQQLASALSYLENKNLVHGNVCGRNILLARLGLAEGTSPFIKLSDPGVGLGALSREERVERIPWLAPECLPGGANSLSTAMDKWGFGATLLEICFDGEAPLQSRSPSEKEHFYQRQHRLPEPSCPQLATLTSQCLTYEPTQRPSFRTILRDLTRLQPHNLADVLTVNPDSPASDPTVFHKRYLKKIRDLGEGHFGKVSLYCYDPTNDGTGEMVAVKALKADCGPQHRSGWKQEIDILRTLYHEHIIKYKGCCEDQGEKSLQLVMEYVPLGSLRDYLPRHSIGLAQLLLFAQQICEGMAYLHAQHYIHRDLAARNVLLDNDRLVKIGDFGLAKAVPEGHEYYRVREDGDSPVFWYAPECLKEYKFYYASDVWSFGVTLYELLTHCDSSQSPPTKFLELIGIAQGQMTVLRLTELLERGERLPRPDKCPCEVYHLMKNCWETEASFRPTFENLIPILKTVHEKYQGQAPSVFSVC

In the case of `CCCCN1C[C@H](N(C)c2ncnc3[nH]ccc23)C2(CC2)C1` [Example 1, (R)-N-(5-butyl-5-azaspiro[2.4]heptan-7-yl)-N-methyl-7H-pyrrolo[2,3-d]pyrimidin-4-amine], the inhibition at 1 µM was 79% in assay [1], -14% in assay [2], 8% in assay [3] and -4% in assay [4].
The like results for `CCCCCN1C[C@H](N(C)c2ncnc3[nH]ccc23)C2(CC2)C1` [Example 2, (R)-N-methyl-N-(5-pentyl-5-azaspiro[2.4]heptan-7-yl)-7H-pyrrolo[2,3-d]pyrimidin-4-amine] were, in that order, 77%, -19%, 7% and 3%.
The like results for `CC(C)C(=O)N1C[C@H](N(C)c2ncnc3[nH]ccc23)C2(CC2)C1` [Example 3, (R)-2-methyl-1-(7-(methyl(7H-pyrrolo[2,3-d]pyrimidin-4-yl)amino)-5-azaspiro[2.4]heptan-5-yl)propan-1-one] were, in that order, 83%, 25%, 16% and 49%.
The like results for `CN(c1ncnc2[nH]ccc12)[C@H]1CN(C(=O)CN=[N+]=[N-])CC12CC2` [Example 4, (R)-2-azido-1-(7-(methyl(7H-pyrrolo[2,3-d]pyrimidin-4-yl)amino)-5-azaspiro[2.4]heptan-5-yl)ethan-1-one] were, in that order, 95%, 72%, 57% and 78%.
In the case of `CC(C)CC(=O)N1C[C@H](N(C)c2ncnc3[nH]ccc23)C2(CC2)C1` [Example 6, (R)-3-methyl-1-(7-(methyl(7H-pyrrolo[2,3-d]pyrimidin-4-yl)amino)-5-azaspiro[2.4]heptan-5-yl)butan-1-one], the inhibition at 1 µM in assay [1] was 90%; in assay [2], 21%; in assay [3] it was 18%; in assay [4], 46%.
Consider `CC(=O)NCC(=O)N1C[C@H](N(C)c2ncnc3[nH]ccc23)C2(CC2)C1` [Example 7, (R)-N-(2-(7-(methyl(7H-pyrrolo[2,3-d]pyrimidin-4-yl)amino)-5-azaspiro[2.4]heptan-5-yl)-2-oxoethyl)acetamide], for which the inhibition at 1 µM in assay [1] was 70%; in assay [2], -17%; in assay [3], 8%; in assay [4], 8%.
On to `CNC(=O)CC(=O)N1C[C@H](N(C)c2ncnc3[nH]ccc23)C2(CC2)C1` [Example 8, (R)-N-methyl-3-(7-(methyl(7H-pyrrolo[2,3-d]pyrimidin-4-yl)amino)-5-azaspiro[2.4]heptan-5-yl)-3-oxopropanamide], for which the inhibition at 1 µM is 61% in assay [1], -7% in assay [2], 3% in assay [3] and 11% in assay [4].
The like results for `CN(c1ncnc2[nH]ccc12)[C@H]1CN(C(=O)C2CC2)CC12CC2` [Example 9, (R)-cyclopropyl(7-(methyl(7H-pyrrolo[2,3-d]pyrimidin-4-yl)amino)-5-azaspiro[2.4]heptan-5-yl)methanone] were, in that order, 90%, 10%, 13% and 70%.
`CC(=O)N1CCC(C(=O)N2C[C@H](N(C)c3ncnc4[nH]ccc34)C3(CC3)C2)CC1` [Example 10, (R)-1-(4-(7-(methyl(7H-pyrrolo[2,3-d]pyrimidin-4-yl)amino)-5-azaspiro[2.4]heptane-5-carbonyl)piperidin-1-yl)ethan-1-one]: the inhibition at 1 µM in assay [1] came to 88%; in assay [2], 2%; in assay [3] it was 23%; in assay [4] it was 52%.
For the compound `CN(c1ncnc2[nH]ccc12)[C@H]1CN(C(=O)c2ccco2)CC12CC2` [Example 11, (R)-furan-2-yl(7-(methyl(7H-pyrrolo[2,3-d]pyrimidin-4-yl)amino)-5-azaspiro[2.4]heptan-5-yl)methanone], the inhibition at 1 µM was found to be 93% in assay [1], 10% in assay [2], 15% in assay [3] and 61% in assay [4].
Turning to `CN(c1ncnc2[nH]ccc12)[C@H]1CN(C(=O)c2cccnc2)CC12CC2` [Example 12, (R)-(7-(methyl(7H-pyrrolo[2,3-d]pyrimidin-4-yl)amino)-5-azaspiro[2.4]heptan-5-yl)(pyridin-3-yl)methanone], the inhibition at 1 µM in assay [1] was 80%; in assay [2], -11%; in assay [3] it was 2%; in assay [4], 26%.
In the case of `CN(c1ncnc2[nH]ccc12)[C@H]1CN(C(=O)c2ccccc2)CC12CC2` [Example 13, (R)-(7-(methyl(7H-pyrrolo[2,3-d]pyrimidin-4-yl)amino)-5-azaspiro[2.4]heptan-5-yl)(phenyl)methanone], the inhibition at 1 µM in assay [1] was 81%; in assay [2], -11%; in assay [3], 13%; in assay [4], 30%.
As for `CN(c1ncnc2[nH]ccc12)[C@H]1CN(C(=O)c2ccncc2)CC12CC2` [Example 14, (R)-(7-(methyl(7H-pyrrolo[2,3-d]pyrimidin-4-yl)amino)-5-azaspiro[2.4]heptan-5-yl)(pyridin-4-yl)methanone], the inhibition at 1 µM is 84% in assay [1], -14% in assay [2], 12% in assay [3] and 15% in assay [4].
The like results for `CN(c1ncnc2[nH]ccc12)[C@H]1CN(C(=O)c2cccc(C#N)c2)CC12CC2` [Example 15, (R)-3-(7-(methyl(7H-pyrrolo[2,3-d]pyrimidin-4-yl)amino)-5-azaspiro[2.4]heptane-5-carbonyl)benzonitrile] were, in that order, 76%, -15%, 13% and 43%.
The like results for `CN(c1ncnc2[nH]ccc12)[C@H]1CN(C(=O)c2ccc(C#N)cc2)CC12CC2` [Example 16, (R)-4-(7-(methyl(7H-pyrrolo[2,3-d]pyrimidin-4-yl)amino)-5-azaspiro[2.4]heptane-5-carbonyl)benzonitrile] were, in that order, 79%, 13%, 15% and 23%.
With `CN(c1ncnc2[nH]ccc12)[C@H]1CN(C(=O)c2ccccc2C(F)(F)F)CC12CC2` [Example 17, (R)-(7-(methyl(7H-pyrrolo[2,3-d]pyrimidin-4-yl)amino)-5-azaspiro[2.4]heptan-5-yl)(2-(trifluoromethyl)phenyl)methanone], the inhibition at 1 µM was 65% in assay [1], -14% in assay [2], -1% in assay [3] and 39% in assay [4].
As to `CN(c1ncnc2[nH]ccc12)[C@H]1CN(C(=O)c2cccc(C(F)(F)F)c2)CC12CC2` [Example 18, (R)-(7-(methyl(7H-pyrrolo[2,3-d]pyrimidin-4-yl)amino)-5-azaspiro[2.4]heptan-5-yl)(3-(trifluoromethyl)phenyl)methanone], the inhibition at 1 µM in assay [1] was 71%; in assay [2], -17%; in assay [3] it was 5%; in assay [4] it was 37%.
